Source: patent US6432922B1 (Corvas International, Inc., priority 1998, dated 2002)
Read-outs that look alike come from different tables or passages of the source. Non-standard residues stand in square brackets, D forms with d. Residues, ends and D or L forms follow the SMILES beside them. *: point of attachment. Fmoc = O=C(OCC1c2ccccc2-c2ccccc21)*; d(aThr) = C[C@@H](O)[C@@H](N)C(=O)O; NMeA = CN[C@@H](C)C(=O)O; Cbz = O=C(OCc1ccccc1)*; Sar = CNCC(=O)O; Moc = COC(=O)*

Legend:
Urokinase (Abbokinase) = Urokinase (Abbokinase) (Homo sapiens, UniProt P00749); test: Urokinase chromogenic substrate (S-2444) IC50 assay
Description: The buffer used for all assays was HBSA (10 mM HEPES, pH 7.5, 150 mM sodium chloride, 0.1% bovine serum albumin).
The initial velocity of chromogenic substrate hydrolysis was measured by the change in absorbance at 405 nm using a Thermo Max® Kinetic Microplate Reader over a 5 minute period in which less than 5% of the added substrate was utilized.
The assay buffer was HBS (10mM HEPES, 150mM sodium chloride pH 7.4) with 0.1% BSA.

Human rt-PA (Activase) = target: T1, Human rt-PA (Activase) (Homo sapiens, UniProt P00750); test: Recombinant tissue plasminogen activator (rt-PA) chromogenic assay; format: biochemical; settings: 30 minute preincubation, HBSA buffer; read-out: tPA IC50
T1 construct: purchased Genentech Inc
T1 sequence (P00750 36-562): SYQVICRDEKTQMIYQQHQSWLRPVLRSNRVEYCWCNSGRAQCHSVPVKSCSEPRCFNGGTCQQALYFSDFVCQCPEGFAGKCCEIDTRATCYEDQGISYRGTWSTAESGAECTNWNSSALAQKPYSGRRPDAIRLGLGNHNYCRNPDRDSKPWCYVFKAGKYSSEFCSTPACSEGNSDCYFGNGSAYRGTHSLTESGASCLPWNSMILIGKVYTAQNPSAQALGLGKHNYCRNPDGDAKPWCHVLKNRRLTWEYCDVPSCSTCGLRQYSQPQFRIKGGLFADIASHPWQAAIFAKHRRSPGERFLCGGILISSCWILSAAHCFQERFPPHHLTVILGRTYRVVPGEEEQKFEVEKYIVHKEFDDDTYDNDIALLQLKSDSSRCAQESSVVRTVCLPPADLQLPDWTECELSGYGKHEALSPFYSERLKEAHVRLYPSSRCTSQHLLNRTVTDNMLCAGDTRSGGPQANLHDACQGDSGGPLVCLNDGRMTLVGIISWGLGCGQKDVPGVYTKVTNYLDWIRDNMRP
Description: rt-PA catalytic activity was determined using the substrate, Pefachrome t-PA (CH3SO2-D-hexahydrotyrosine-glycyl-L-arginine-p-nitroaniline, obtained from Pentap harm Ltd.). The substrate was made up in deionized water followed by dilution in HBSA prior to the assay in which the final concentration was 500 micromolar (about 3-times Km). Human rt-PA (Activase®) was obtained from Genentech Inc. The enzyme was reconstituted in deionized water and diluted into HBSA prior to the assay in which the final concentration was 1.0 nM.

Compound	IC50 (Urokinase (Abbokinase)) [nM]	IC50 (Human rt-PA (Activase)) [nM]	IC50 (Urokinase (Abbokinase); read-out: uPA IC50, 30 minute preincubation, HBSA buffer) [nM]
CC1CCC(C(C)C)C(OC(=O)N[C@H](CO)C(=O)N[C@@H](C)C(=O)N[C@H](C=O)CCCNC(=N)N)C1 (single isomer, unassigned; (+)) [Compound 7, (+)menthyloxy-carbonyl-D-seryl-alanyl-argininal]	< 100	> 2500	–
CC1CCC(C(C)C)C(OC(=O)N[C@H](CO)C(=O)N[C@@H](C)C(=O)N[C@H](C=O)CCCNC(=N)N)C1 (single isomer, unassigned; (-)) [Compound 3, (−)menthyloxy-carbonyl-D-seryl-alanyl-argininal]	–	> 2500	< 100
C[C@H](NC(=O)[C@@H](CO)NC(=O)Oc1ccc2ccccc2c1)C(=O)N[C@H](C=O)CCCNC(=N)N [Compound 4, 2-naphthyloxy-carbonyl-D-seryl-alanyl-argininal]	< 100	> 2500	–
C[C@H](NC(=O)[C@@H](CO)NC(=O)Oc1ccccc1)C(=O)N[C@H](C=O)CCCNC(=N)N [Compound 5, phenoxycarbonyl-D-seryl-alanyl-argininal]	< 100	> 2500	–
CCCCC(CC)COC(=O)N[C@H](CO)C(=O)N[C@@H](C)C(=O)N[C@H](C=O)CCCNC(=N)N (stereo partly drawn) [Compound 6, 2-ethylhexyloxy-carbonyl-D-seryl-alanyl-argininal]	< 100	> 2500	–
N=C(N)NCCC[C@@H](C=O)NC(=O)[C@@H]1CCCCN1C(=O)[C@@H](CO)NC(=O)OCc1ccccc1 [Compound 13]	100 to 250	> 2500	–
CC[C@H](NC(=O)[C@@H](CO)NC(=O)OCc1ccccc1)C(=O)N[C@H](C=O)CCCNC(=N)N [Compound 14]	< 100	> 2500	–
CCCC(NC(=O)[C@@H](CO)NC(=O)OCc1ccccc1)C(=O)NC(C=O)CCCNC(=N)N (some centres unmarked) [Compound 16]	100 to 250	> 2500	–
N=C(N)NCCCC(C=O)NC(=O)CNC(=O)[C@@H](CO)NC(=O)OCc1ccccc1 (some centres unmarked) [Compound 17]	100 to 250	> 2500	–

Other lines, results leading:

IC50 (Urokinase (Abbokinase)) [nM]	IC50 (Human rt-PA (Activase)) [nM]	IC50 (Urokinase (Abbokinase); read-out: uPA IC50, 30 minute preincubation, HBSA buffer) [nM]	Compound
< 100	> 2500	–	COC(=O)N[C@H](CO)C(=O)N[C@@H](C)C(=O)N[C@H](C=O)CCCNC(=N)N [Compound 8, methyloxycarbonyl-D-seryl-alanyl-argininal] (Moc-[dS]-Ala-Arg-aldehyde)
< 100	> 2500	–	CCCCOC(=O)N[C@H](CO)C(=O)N[C@@H](C)C(=O)N[C@H](C=O)CCCNC(=N)N [Compound 9, n-butyloxycarbonyl-D-seryl-alanyl-argininal]
< 100	> 2500	–	C[C@H](NC(=O)[C@@H](CO)NC(=O)OCC1c2ccccc2-c2ccccc21)C(=O)N[C@H](C=O)CCCNC(=N)N [Compound 10, Fluorenylmethyloxycarbonyl-D-seryl-alanyl-argininal] (Fmoc-[dS]-Ala-Arg-aldehyde)
100 to 250	> 2500	–	CSC[C@H](NC(=O)[C@@H](CO)NC(=O)OCc1ccccc1)C(=O)N[C@H](C=O)CCCNC(=N)N [Compound 15, benzyloxycarbonyl-D-seryl-S-methylcysteinyl-argininal] (Cbz-[dS]-Cys(Me)-Arg-aldehyde)
100 to 250	–	–	C[C@H](NC(=O)[C@@H](C)NC(=O)OCc1ccccc1)C(=O)N[C@H](C=O)CCCNC(=N)N [Compound 21, benzyloxycarbonyl-D-alanyl-alanyl-argininal] (Cbz-[dA]-Ala-Arg-aldehyde)
100 to 250	–	–	C[C@@H](O)[C@@H](NC(=O)OCc1ccccc1)C(=O)N(C)CC(=O)N[C@H](C=O)CCCNC(=N)N [Compound 24, benzyloxycarbonyl-D-allothreonyl-sarcosyl-argininal] (Cbz-[d(aThr)]-[Sar]-Arg-aldehyde)
100 to 250	–	–	C[C@@H](O)[C@@H](NC(=O)OCc1ccccc1)C(=O)N(C)[C@@H](C)C(=O)N[C@H](C=O)CCCNC(=N)N [Compound 25, benzyloxycarbonyl-D-allothreonyl-N-methylalanyl-argininal] (Cbz-[d(aThr)]-[NMeA]-Arg-aldehyde)
